# In paper PMC6199309, “A therapeutic approach to pantothenate kinase associated neurodegeneration” (Nature Communications, 2018):
# Legend:
# [1] = target: T1, FLT3-autoinhibited (Homo sapiens, UniProt P36888); test: KINOMEscan; type: binding; conditions: read-out: %Ctrl @ 10000nM
# T1 construct: purchased DiscoverX KINOMEscan
# [2] = target: T2, TLK2 (Homo sapiens, UniProt Q86UE8); test: KINOMEscan; type: binding; conditions: read-out: %Ctrl @ 10000nM
# T2 construct: purchased DiscoverX KINOMEscan
# [3] = target: T3, SNARK (Homo sapiens, UniProt Q9H093); test: KINOMEscan; type: binding; conditions: read-out: %Ctrl @ 10000nM
# T3 construct: purchased DiscoverX KINOMEscan
# [4] = target: T4, SRC (Homo sapiens, UniProt P12931); test: KINOMEscan; type: binding; conditions: read-out: %Ctrl @ 10000nM
# T4 construct: purchased DiscoverX KINOMEscan
# [5] = target: T5, WNK3 (Homo sapiens, UniProt Q9BYP7); test: KINOMEscan; type: binding; conditions: read-out: %Ctrl @ 10000nM
# T5 construct: DNA label for qPCR (T7 phage fusion or DNA tag); purchased DiscoverX scanMAX; host or cells: E. coli BL21-derived (T7 phage) or HEK-293
# [6] = target: T6, MAST1 (Homo sapiens, UniProt Q9Y2H9); test: KINOMEscan; type: binding; conditions: read-out: %Ctrl @ 10000nM
# T6 construct: purchased DiscoverX KINOMEscan
# [7] = target: T7, CDKL2 (Homo sapiens, UniProt Q92772); test: KINOMEscan; type: binding; conditions: read-out: %Ctrl @ 10000nM
# T7 construct: purchased DiscoverX KINOMEscan
# [8] = target: T8, NEK6 (Homo sapiens, UniProt Q9HC98); test: KINOMEscan; type: binding; conditions: read-out: %Ctrl @ 10000nM
# T8 construct: purchased DiscoverX KINOMEscan
# [9] = target: T9, ACVRL1 (Homo sapiens, UniProt P37023); test: KINOMEscan; type: binding; conditions: read-out: %Ctrl @ 10000nM
# T9 construct: purchased DiscoverX KINOMEscan
# [10] = target: T10, HIPK1 (Homo sapiens, UniProt Q86Z02); test: KINOMEscan; type: binding; conditions: read-out: %Ctrl @ 10000nM
# T10 construct: purchased DiscoverX KINOMEscan
# [11] = target: T11, LZK (Homo sapiens, UniProt O43283); test: KINOMEscan; type: binding; conditions: read-out: %Ctrl @ 10000nM
# T11 construct: purchased DiscoverX KINOMEscan
# [12] = target: T12, IKK-beta (Homo sapiens, UniProt O14920); test: KINOMEscan; type: binding; conditions: read-out: %Ctrl @ 10000nM
# T12 construct: purchased DiscoverX KINOMEscan
# [13] = target: T13, HASPIN (Homo sapiens, UniProt Q8TF76); test: KINOMEscan; type: binding; conditions: read-out: %Ctrl @ 10000nM
# T13 construct: purchased DiscoverX KINOMEscan
# [14] = target: T14, EGFR(L747-E749del, A750P) (Homo sapiens, UniProt P00533, A750P/DEL747-749); test: KINOMEscan; type: binding; conditions: read-out: %Ctrl @ 10000nM
# T14 construct: purchased DiscoverX KINOMEscan
# [15] = target: T15, MAP3K15 (Homo sapiens, UniProt Q6ZN16); test: KINOMEscan; type: binding; conditions: read-out: %Ctrl @ 10000nM
# T15 construct: purchased DiscoverX KINOMEscan
# [16] = target: T16, PIM1 (Homo sapiens, UniProt P11309); test: KINOMEscan; type: binding; conditions: read-out: %Ctrl @ 10000nM
# T16 construct: purchased DiscoverX KINOMEscan
# [17] = target: T17, MAP3K2 (Homo sapiens, UniProt Q9Y2U5); test: KINOMEscan; type: binding; conditions: read-out: %Ctrl @ 10000nM
# T17 construct: purchased DiscoverX KINOMEscan
# [18] = target: T18, NEK11 (Homo sapiens, UniProt Q8NG66); test: KINOMEscan; type: binding; conditions: read-out: %Ctrl @ 10000nM
# T18 construct: purchased DiscoverX KINOMEscan
# [19] = target: T19, PRKG1 (Homo sapiens, UniProt Q13976); test: KINOMEscan; type: binding; conditions: read-out: %Ctrl @ 10000nM
# T19 construct: purchased DiscoverX KINOMEscan
# [20] = target: T20, PRKX (Homo sapiens, UniProt P51817); test: KINOMEscan; type: binding; conditions: read-out: %Ctrl @ 10000nM
# T20 construct: purchased DiscoverX KINOMEscan
# [21] = target: T21, FGFR1 (Homo sapiens, UniProt P11362); test: KINOMEscan; type: binding; conditions: read-out: %Ctrl @ 10000nM
# T21 construct: purchased DiscoverX KINOMEscan
# [22] = target: T22, MLCK (Homo sapiens, UniProt Q32MK0); test: KINOMEscan; type: binding; conditions: read-out: %Ctrl @ 10000nM
# T22 construct: purchased DiscoverX KINOMEscan
# [23] = target: T23, PRKD1 (Homo sapiens, UniProt Q15139); test: KINOMEscan; type: binding; conditions: read-out: %Ctrl @ 10000nM
# T23 construct: purchased DiscoverX KINOMEscan
# [24] = target: T24, NEK10 (Homo sapiens, UniProt Q6ZWH5); test: KINOMEscan; type: binding; conditions: read-out: %Ctrl @ 10000nM
# T24 construct: purchased DiscoverX KINOMEscan
# [25] = target: T25, CLK4 (Homo sapiens, UniProt Q9HAZ1); test: KINOMEscan; type: binding; conditions: read-out: %Ctrl @ 10000nM
# T25 construct: purchased DiscoverX KINOMEscan
# [26] = target: T26, PDPK1 (Homo sapiens, UniProt O15530); test: KINOMEscan; type: binding; conditions: read-out: %Ctrl @ 10000nM
# T26 construct: purchased DiscoverX KINOMEscan
# [27] = target: T27, PIM2 (Homo sapiens, UniProt Q9P1W9); test: KINOMEscan; type: binding; conditions: read-out: %Ctrl @ 10000nM
# T27 construct: purchased DiscoverX KINOMEscan
# [28] = target: T28, ZAK (Homo sapiens, UniProt Q9NYL2); test: KINOMEscan; type: binding; conditions: read-out: %Ctrl @ 10000nM
# T28 construct: purchased DiscoverX scanMAX; host or cells: E. coli BL21-derived host (T7 phage) or HEK-293
# [29] = target: T29, JNK1 (Homo sapiens, UniProt P45983); test: KINOMEscan; type: binding; conditions: read-out: %Ctrl @ 10000nM
# T29 construct: purchased DiscoverX KINOMEscan
# [30] = target: T30, CTK (Homo sapiens, UniProt P42679); test: KINOMEscan; type: binding; conditions: read-out: %Ctrl @ 10000nM
# T30 construct: purchased DiscoverX KINOMEscan
# [31] = target: T31, SRPK2 (Homo sapiens, UniProt P78362); test: KINOMEscan; type: binding; conditions: read-out: %Ctrl @ 10000nM
# T31 construct: purchased DiscoverX KINOMEscan
# [32] = target: T32, ERK5 (Homo sapiens, UniProt Q13164); test: KINOMEscan; type: binding; conditions: read-out: %Ctrl @ 10000nM
# T32 construct: purchased DiscoverX KINOMEscan
# [33] = Protein binding; conditions: rat
# [34] = target: T33, PKMYT1 (Homo sapiens, UniProt Q99640); test: KINOMEscan; type: binding; conditions: read-out: %Ctrl @ 10000nM
# T33 construct: purchased DiscoverX KINOMEscan
# [35] = target: T34, BRAF(V600E) (Homo sapiens, UniProt P15056, V600E); test: KINOMEscan; type: binding; conditions: read-out: %Ctrl @ 10000nM
# T34 construct: purchased DiscoverX KINOMEscan
# [36] = target: T35, PKN2 (Homo sapiens, UniProt Q16513); test: KINOMEscan; type: binding; conditions: read-out: %Ctrl @ 10000nM
# T35 construct: purchased DiscoverX KINOMEscan
# [37] = target: T36, DAPK3 (Homo sapiens, UniProt O43293); test: KINOMEscan; type: binding; conditions: read-out: %Ctrl @ 10000nM
# T36 construct: purchased DiscoverX KINOMEscan
# [38] = target: T37, SGK2 (Homo sapiens, UniProt Q9HBY8); test: KINOMEscan; type: binding; conditions: read-out: %Ctrl @ 10000nM
# T37 construct: purchased DiscoverX KINOMEscan
# [39] = target: T38, CLK1 (Homo sapiens, UniProt P49759); test: KINOMEscan; type: binding; conditions: read-out: %Ctrl @ 10000nM
# T38 construct: purchased DiscoverX KINOMEscan
# [40] = target: T39, MARK3 (Homo sapiens, UniProt P27448); test: KINOMEscan; type: binding; conditions: read-out: %Ctrl @ 10000nM
# T39 construct: purchased DiscoverX KINOMEscan
# [41] = target: T40, TGFBR2 (Homo sapiens, UniProt P37173); test: KINOMEscan; type: binding; conditions: read-out: %Ctrl @ 10000nM
# T40 construct: purchased DiscoverX KINOMEscan
# [42] = target: T41, CAMK1D (Homo sapiens, UniProt Q8IU85); test: KINOMEscan; type: binding; conditions: read-out: %Ctrl @ 10000nM
# T41 construct: purchased DiscoverX KINOMEscan
# [43] = target: T42, TSSK1B (Homo sapiens, UniProt Q9BXA7); test: KINOMEscan; type: binding; conditions: read-out: %Ctrl @ 10000nM
# T42 construct: DNA label for qPCR (T7 phage fusion or DNA tag); purchased DiscoverX scanMAX; host or cells: E. coli BL21-derived (T7 phage) or HEK-293
# T42 sequence (Q9BXA7 whole entry, the tested form may be a part): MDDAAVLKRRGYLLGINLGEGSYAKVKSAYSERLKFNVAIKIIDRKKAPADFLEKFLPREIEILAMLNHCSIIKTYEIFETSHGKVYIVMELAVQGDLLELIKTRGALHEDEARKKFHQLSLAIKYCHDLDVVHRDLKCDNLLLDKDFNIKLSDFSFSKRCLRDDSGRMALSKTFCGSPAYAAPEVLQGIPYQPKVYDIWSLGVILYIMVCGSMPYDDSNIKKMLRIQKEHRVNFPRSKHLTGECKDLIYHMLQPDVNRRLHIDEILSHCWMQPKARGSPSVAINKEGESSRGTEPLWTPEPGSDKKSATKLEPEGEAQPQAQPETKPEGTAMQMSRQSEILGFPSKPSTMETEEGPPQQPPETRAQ
# T29 sequence (P45983 whole entry): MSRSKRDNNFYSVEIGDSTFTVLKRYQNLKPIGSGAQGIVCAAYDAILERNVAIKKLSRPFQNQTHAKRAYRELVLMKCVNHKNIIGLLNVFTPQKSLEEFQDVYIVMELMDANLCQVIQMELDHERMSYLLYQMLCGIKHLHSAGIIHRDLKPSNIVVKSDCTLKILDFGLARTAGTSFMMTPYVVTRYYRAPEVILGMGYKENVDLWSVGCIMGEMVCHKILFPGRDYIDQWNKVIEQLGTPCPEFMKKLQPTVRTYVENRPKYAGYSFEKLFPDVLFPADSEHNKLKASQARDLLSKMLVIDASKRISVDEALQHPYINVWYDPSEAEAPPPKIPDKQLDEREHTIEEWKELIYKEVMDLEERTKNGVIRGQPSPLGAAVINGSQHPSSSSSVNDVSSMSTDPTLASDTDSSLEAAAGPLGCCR
# T3 sequence (Q9H093 whole entry): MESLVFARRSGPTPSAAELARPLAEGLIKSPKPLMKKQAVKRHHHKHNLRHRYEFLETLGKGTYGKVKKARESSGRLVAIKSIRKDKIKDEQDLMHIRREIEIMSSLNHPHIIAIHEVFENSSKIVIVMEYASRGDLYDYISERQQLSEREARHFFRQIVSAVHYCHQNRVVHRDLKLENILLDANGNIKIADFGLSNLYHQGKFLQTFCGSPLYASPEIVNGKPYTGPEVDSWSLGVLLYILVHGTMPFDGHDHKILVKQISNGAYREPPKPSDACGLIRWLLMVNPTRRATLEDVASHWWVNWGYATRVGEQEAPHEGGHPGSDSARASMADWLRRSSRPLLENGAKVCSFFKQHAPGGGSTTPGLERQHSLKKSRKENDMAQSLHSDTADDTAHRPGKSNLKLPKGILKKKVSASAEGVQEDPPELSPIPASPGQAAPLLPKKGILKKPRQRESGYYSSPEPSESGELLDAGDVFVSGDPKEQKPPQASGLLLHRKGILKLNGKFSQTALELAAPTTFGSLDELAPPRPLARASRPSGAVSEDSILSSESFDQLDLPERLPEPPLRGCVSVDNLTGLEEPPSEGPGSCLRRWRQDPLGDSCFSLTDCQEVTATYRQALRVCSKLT
# T13 sequence (Q8TF76 whole entry): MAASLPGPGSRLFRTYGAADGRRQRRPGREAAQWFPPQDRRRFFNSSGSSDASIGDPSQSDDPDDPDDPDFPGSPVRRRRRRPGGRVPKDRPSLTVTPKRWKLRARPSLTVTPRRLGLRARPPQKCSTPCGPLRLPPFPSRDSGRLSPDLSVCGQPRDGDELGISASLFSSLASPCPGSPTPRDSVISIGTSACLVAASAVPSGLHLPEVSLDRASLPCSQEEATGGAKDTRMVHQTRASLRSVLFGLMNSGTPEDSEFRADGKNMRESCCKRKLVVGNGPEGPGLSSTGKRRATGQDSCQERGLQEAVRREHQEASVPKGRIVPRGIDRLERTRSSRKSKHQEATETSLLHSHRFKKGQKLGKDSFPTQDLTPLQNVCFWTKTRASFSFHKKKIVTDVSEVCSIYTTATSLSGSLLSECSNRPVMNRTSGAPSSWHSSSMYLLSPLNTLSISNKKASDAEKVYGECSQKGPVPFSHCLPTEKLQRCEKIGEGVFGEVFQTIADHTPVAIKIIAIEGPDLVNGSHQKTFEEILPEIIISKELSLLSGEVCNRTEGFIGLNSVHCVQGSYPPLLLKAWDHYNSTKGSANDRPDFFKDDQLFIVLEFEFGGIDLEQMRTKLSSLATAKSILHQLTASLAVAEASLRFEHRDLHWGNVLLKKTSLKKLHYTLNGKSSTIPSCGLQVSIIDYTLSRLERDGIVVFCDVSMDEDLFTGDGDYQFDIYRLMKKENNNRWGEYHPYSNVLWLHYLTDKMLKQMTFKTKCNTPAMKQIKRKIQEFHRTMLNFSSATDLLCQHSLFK
# T4 sequence (P12931 whole entry): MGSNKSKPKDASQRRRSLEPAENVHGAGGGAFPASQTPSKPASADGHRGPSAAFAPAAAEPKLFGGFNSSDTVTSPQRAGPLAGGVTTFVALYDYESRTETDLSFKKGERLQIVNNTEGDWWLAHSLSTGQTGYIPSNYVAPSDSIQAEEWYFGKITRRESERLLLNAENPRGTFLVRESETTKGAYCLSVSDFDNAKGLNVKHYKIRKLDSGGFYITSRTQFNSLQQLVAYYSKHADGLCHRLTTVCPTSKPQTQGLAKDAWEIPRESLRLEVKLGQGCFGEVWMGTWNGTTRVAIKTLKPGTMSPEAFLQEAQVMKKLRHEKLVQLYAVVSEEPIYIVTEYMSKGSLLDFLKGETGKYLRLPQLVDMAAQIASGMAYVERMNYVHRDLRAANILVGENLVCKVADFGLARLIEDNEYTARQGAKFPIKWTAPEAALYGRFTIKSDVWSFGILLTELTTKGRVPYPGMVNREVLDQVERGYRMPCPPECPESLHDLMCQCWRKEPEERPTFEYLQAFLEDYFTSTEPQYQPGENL
# T30 sequence (P42679 whole entry): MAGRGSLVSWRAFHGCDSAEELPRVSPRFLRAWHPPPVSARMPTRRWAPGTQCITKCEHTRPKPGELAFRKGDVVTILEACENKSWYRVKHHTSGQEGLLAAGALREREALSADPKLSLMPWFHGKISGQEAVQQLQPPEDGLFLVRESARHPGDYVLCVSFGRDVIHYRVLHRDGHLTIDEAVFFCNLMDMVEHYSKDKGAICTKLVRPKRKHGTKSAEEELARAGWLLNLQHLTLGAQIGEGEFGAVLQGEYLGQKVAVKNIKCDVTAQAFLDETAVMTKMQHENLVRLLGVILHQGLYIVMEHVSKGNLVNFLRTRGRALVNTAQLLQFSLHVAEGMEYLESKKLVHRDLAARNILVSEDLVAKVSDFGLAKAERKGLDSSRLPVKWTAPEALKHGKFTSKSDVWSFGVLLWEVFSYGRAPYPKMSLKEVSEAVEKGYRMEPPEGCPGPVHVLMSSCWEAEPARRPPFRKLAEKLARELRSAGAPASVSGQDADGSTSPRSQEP
# T9 sequence (P37023 22-503): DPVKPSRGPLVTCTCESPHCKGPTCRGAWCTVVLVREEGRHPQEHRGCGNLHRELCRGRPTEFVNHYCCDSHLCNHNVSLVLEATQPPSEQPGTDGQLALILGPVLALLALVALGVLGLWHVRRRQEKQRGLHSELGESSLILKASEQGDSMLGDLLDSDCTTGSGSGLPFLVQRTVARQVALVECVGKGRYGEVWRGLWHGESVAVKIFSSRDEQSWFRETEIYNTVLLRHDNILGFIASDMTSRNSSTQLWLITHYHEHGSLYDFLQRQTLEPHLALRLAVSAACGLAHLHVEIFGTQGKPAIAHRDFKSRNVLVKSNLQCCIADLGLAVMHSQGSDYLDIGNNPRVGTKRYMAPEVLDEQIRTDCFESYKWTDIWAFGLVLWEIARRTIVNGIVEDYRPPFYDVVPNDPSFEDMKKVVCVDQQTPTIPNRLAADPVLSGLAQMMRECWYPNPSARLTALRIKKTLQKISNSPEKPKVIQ
# T20 sequence (P51817 whole entry): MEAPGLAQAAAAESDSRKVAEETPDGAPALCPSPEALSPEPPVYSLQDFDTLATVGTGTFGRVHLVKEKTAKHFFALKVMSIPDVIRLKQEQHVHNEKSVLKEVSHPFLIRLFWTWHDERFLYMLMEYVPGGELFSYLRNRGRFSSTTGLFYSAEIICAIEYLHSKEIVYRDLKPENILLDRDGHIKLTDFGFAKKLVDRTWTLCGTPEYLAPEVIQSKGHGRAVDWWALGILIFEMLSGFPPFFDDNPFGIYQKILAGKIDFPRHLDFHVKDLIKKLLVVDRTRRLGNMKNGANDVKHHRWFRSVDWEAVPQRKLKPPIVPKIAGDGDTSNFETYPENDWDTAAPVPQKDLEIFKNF
# T12 sequence (O14920 whole entry): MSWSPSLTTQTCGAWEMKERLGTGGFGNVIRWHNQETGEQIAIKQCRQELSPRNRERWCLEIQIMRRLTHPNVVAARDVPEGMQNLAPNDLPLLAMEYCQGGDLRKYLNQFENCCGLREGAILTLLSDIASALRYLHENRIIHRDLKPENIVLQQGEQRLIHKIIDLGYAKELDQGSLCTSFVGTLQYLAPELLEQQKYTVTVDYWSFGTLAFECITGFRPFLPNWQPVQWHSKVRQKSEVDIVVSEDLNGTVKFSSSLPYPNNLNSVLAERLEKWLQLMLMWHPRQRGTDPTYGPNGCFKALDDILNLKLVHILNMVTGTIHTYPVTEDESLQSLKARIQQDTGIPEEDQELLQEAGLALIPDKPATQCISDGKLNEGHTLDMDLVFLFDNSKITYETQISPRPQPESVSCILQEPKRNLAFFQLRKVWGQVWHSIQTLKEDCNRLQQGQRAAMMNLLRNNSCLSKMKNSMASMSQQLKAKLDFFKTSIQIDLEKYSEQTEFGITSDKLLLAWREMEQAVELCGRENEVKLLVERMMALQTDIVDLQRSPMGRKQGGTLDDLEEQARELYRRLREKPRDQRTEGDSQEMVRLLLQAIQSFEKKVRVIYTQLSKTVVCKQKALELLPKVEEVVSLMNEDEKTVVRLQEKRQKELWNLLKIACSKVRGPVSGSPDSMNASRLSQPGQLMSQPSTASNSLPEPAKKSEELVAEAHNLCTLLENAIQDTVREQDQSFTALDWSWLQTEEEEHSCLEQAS
smiles,measurement,setting,value
"CC(C)c1ccc(CC(=O)N2CCN(c3ccc(C#N)nn3)CC2)cc1 [PZ-2891, 6-(4-(2-(4-isopropylphenyl)acetyl)piperazin-1-yl)pyridazine-3-carbonitrile]",remaining binding at 10 µM,[1],82%
same,remaining binding at 10 µM,[2],98%
same,remaining binding at 10 µM,[3],69%
same,remaining binding at 10 µM,[4],97%
same,remaining binding at 10 µM,[5],100%
same,remaining binding at 10 µM,[6],61%
same,remaining binding at 10 µM,[7],90%
same,remaining binding at 10 µM,[8],91%
same,remaining binding at 10 µM,[9],100%
same,remaining binding at 10 µM,[10],61%
same,remaining binding at 10 µM,[11],89%
same,remaining binding at 10 µM,[12],100%
same,remaining binding at 10 µM,[13],85%
same,remaining binding at 10 µM,[14],72%
same,remaining binding at 10 µM,[15],92%
same,remaining binding at 10 µM,[16],93%
same,remaining binding at 10 µM,[17],96%
same,remaining binding at 10 µM,[18],99%
same,remaining binding at 10 µM,[19],99%
same,remaining binding at 10 µM,[20],70%
same,remaining binding at 10 µM,[21],87%
same,remaining binding at 10 µM,[22],100%
same,remaining binding at 10 µM,[23],89%
same,remaining binding at 10 µM,[24],89%
same,remaining binding at 10 µM,[25],98%
same,remaining binding at 10 µM,[26],75%
same,remaining binding at 10 µM,[27],96%
same,remaining binding at 10 µM,[28],88%
same,remaining binding at 10 µM,[29],62%
same,remaining binding at 10 µM,[30],77%
same,remaining binding at 10 µM,[31],97%
same,remaining binding at 10 µM,[32],93%
same,fraction unbound,[33],0.09
same,remaining binding at 10 µM,[34],100%
same,remaining binding at 10 µM,[35],100%
same,remaining binding at 10 µM,[36],94%
same,remaining binding at 10 µM,[37],100%
same,remaining binding at 10 µM,[38],64%
same,remaining binding at 10 µM,[39],75%
same,remaining binding at 10 µM,[40],84%
same,remaining binding at 10 µM,[41],98%
same,remaining binding at 10 µM,[42],95%
same,remaining binding at 10 µM,[43],99%
